Reference: patent US20130216630A1, “BIOMATERIALS FOR USE IN METHODS OF BONE REPLACEMENT THERAPY” (UNIVERSITY OF WITWATERSRAND, JOHANNESBURG, priority 2010, published 2013)
Entries after “also recorded” stand apart in the source; their conditions may differ.

How the values were obtained:
[1] = test system: rectus abdominis muscle of Papio ursinus; assay: Heterotopic implantation of macroporous 7% HA/CC constructs in rectus abdominis muscle, histological evaluation of bone induction; type: in vivo; settings: coral-derived 7% HA/CC macroporous constructs pre-loaded with 0.24 mg zoledronate; intramuscular (rectus abdominis) implantation in adult Papio ursinus; harvested 90 days after implantation
Description: Topographical modification of the implanted constructs may be of the utmost importance for the differentiation of myoblastic/myoendothelial and/or perivascular/endothelial stem cells into osteoblastic-like cells. In order to study the effect of the osteoclastic activity on cell differentiation and the induction of bone formation, samples of solid porous construct compositions, typically macroporous hydroxyapatites were pre-loaded with 0.24 mg of the osteoclastic inhibitor biphosphonate zoledronate (Zometa®). Samples with and without zoledronate were then implanted in the rectus abdominis muscle of Papio ursinus.
A biomaterial to act, in use, as a platform for bone growth induction and/or bone growth was prepared. Said solid porous composition in the form of macroporous hydroxyapatite replicas of the calcium carbonate exoskeletal microstructure of the coral genus Goniopora was prepared by hydrothermal chemical exchange with phosphate [(5) Ripamonti, U. J Bone Joint Surg Am 1991; 73:692-703; (6) Ripamonti U, Richter P W, Nilen R W N, Renton L., J Cell Mol Med 2008; 12:1029-48., (7) Shors EC, Orthop Clin North Am 1999:30:599-613; (8) Ripamonti U, van den Heever B, van Wyk J., Matrix 1993;13:491-502; (9) Ripamonti, R. M. Klar, L. F. Renton, C Ferretti., Biomaterials, 31, 6400-6410 (2010). The entirety of which are incorporated by reference herein]. […]

[2] = test system: osteogenic protein-1 (OP-1) gene expression; assay: qTR-PCR analyses of harvested biomaterial constructs; type: in vivo; settings: harvested constructs pre-treated with 0.24 mg zoledronate; Papio ursinus rectus abdominis
Text: It is important to note that in specimens with bone formation by induction there is always expression of the OP-1 gene, i.e. there is a direct correlation between the induction of bone and the expression of the OP-1 gene.

With `O=P(O)(O)C(O)(Cn1ccnc1)P(=O)(O)O` [zoledronate] the “induction of bone formation / differentiation of bone within macroporous spaces (histology)” value [1] was “lack of bone induction and/or bone growth; also recorded: either did not induce the differentiation of bone at all, or the induction was considerably inhibited; also recorded: In two specimens, the spontaneous induction of bone formation was altogether absent; also recorded: minor amounts of bone had formed by induction at the periphery; also recorded: very limited bone formation” and the “osteogenic protein-1 (OP-1) gene expression” value [2] was “dramatic reduction”.
